According to patent publication US6620828B2, “Thiazole compounds and pharmaceutical compositions for inhibiting protein kinases and methods for their use” (Agouron Pharmaceuticals, Inc., priority 1999, dated 2003):
Where two headings read alike, the source gives them in different places.

Test system: human umbilical vein endothelial cells (HUVEC)
Experiment: HUVEC proliferation assay
Type: cell-based
Conditions: for inhibition at 0.05 µM / inhibition at 0.15 µM / inhibition at 0.001 µM / inhibition at 0.01 µM: Homo sapiens, HUVEC; for inhibition at 0.05 µM: 50 nM; for inhibition at 0.001 µM: 1 nM; for inhibition at 0.01 µM: 10 nM
Procedure, shortened: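 Exponentially growing HUVEC were serum-starved 24 h (F12K + 1% FBS), pre-treated 1 h with compound (0.1% DMSO final), then stimulated with 6 ng/ml VEGF. Proliferation was read 72 h later by MTT reduction (A595). IC50 came from seven 0.5-log concentrations in triplicate; screens gave % inhibition relative to VEGF-only and starved wells.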

[1] = Inhibition of HUVEC Proliferation, crude combinatorial urea library, read-out: Inhibition @ 50 nM
[2] = Table I screening results, 150 nM, crude combinatorial amide library
[3] = table following Table II (untitled), crude combinatorial library
[4] = table following Table II (untitled), crude combinatorial library, read-out: % inhibition @ 10 nM
[5] = Table II screening results, crude combinatorial amide library
[6] = Table II screening results, crude combinatorial amide library, read-out: % inhibition @ 10 nM

COc1cccc(C(=O)Nc2cc(-c3noc(-c4sc(NC(=O)NCCNc5ccccc5)nc4N)n3)c(F)cc2F)c1
inhibition at 0.05 µM [1]: 89%

COc1cc(Nc2nc(N)c(-c3nc(-c4cccc(NC(=O)c5cc6ccccc6[nH]5)c4)cs3)s2)cc(OC)c1OC
inhibition at 0.15 µM [2]: 4%

COc1cc(Nc2nc(N)c(-c3nc(-c4cccc(NC(=O)C(c5ccccc5)C5CCCC5)c4)cs3)s2)cc(OC)c1OC (stereo not drawn)
inhibition at 0.15 µM [2]: 3%

COc1cc(Nc2nc(N)c(-c3nc(-c4cc(NC(=O)CCC(=O)N5CCCC5)ccc4C)no3)s2)cc(OC)c1OC
inhibition at 0.001 µM [3]: -18%
inhibition at 0.01 µM [4]: -20%

COc1cc(Nc2nc(N)c(-c3nc(-c4cccc(NC(=O)Cc5cccnc5)c4)cs3)s2)cc(OC)c1OC
inhibition at 0.15 µM [2]: -20%

CNC(=O)Nc1nc(N)c(-c2nc(-c3cccc(NC(=O)c4cc(C)[nH]c4C)c3)cs2)s1
inhibition at 0.001 µM [5]: 25%
inhibition at 0.01 µM [6]: -13%

COc1cc(Nc2nc(N)c(-c3nc(-c4cccc(NC(=O)c5ncoc5-c5ccccc5)c4)cs3)s2)cc(OC)c1OC [drawing 897]
inhibition at 0.15 µM [2]: 64%

COc1cc(Nc2nc(N)c(-c3nc(-c4cc(NC(=O)/C=C(\C)c5ccccc5C)ccc4C)no3)s2)cc(OC)c1OC
inhibition at 0.001 µM [3]: -27%
inhibition at 0.01 µM [4]: 8%

CNC(=O)Nc1nc(N)c(-c2nc(-c3cccc(NC(=O)C4CCCN4C(C)=O)c3)cs2)s1 (stereo not drawn)
inhibition at 0.001 µM [5]: 3%
inhibition at 0.01 µM [6]: 27%

CCOC(=O)/C=C/C(=O)Nc1cccc(-c2csc(-c3sc(Nc4cc(OC)c(OC)c(OC)c4)nc3N)n2)c1
inhibition at 0.15 µM [2]: 27%

COc1cc(Nc2nc(N)c(-c3nc(-c4cccc(NC(=O)c5c(-c6ccccc6)noc5C)c4)cs3)s2)cc(OC)c1OC
inhibition at 0.15 µM [2]: 5%

COc1cc(Nc2nc(N)c(-c3nc(-c4cc(NC(=O)/C=C/C(=O)NCC5CC5)ccc4C)no3)s2)cc(OC)c1OC
inhibition at 0.001 µM [3]: 39%
inhibition at 0.01 µM [4]: 5%

CNC(=O)Nc1nc(N)c(-c2nc(-c3cccc(NC(=O)C(O)CC(C)C)c3)cs2)s1 (stereo not drawn)
inhibition at 0.001 µM [5]: -18%
inhibition at 0.01 µM [6]: 2%

COc1cc(Nc2nc(N)c(-c3nc(-c4cccc(NC(=O)c5ccc(C)c(Br)c5)c4)cs3)s2)cc(OC)c1OC
inhibition at 0.15 µM [2]: 86%

COc1cccc(C(=O)Nc2cc(-c3noc(-c4sc(NC(=O)NCCOCCO)nc4N)n3)c(F)cc2F)c1 [drawing 787]
inhibition at 0.05 µM [1]: 98%

C/C=C(\C)C(=O)Nc1ccc(C)c(-c2noc(-c3sc(Nc4cc(OC)c(OC)c(OC)c4)nc3N)n2)c1
inhibition at 0.001 µM [3]: 60%
inhibition at 0.01 µM [4]: 123%

COc1cc(Nc2nc(N)c(-c3nc(-c4cc(NC(=O)/C=C/C5CC[C@H]6C=C[C@@H]5C6)ccc4C)no3)s2)cc(OC)c1OC (stereo partly drawn)
inhibition at 0.001 µM [3]: -12%
inhibition at 0.01 µM [4]: 25%

COc1cc(/C=C/C(=O)Nc2cccc(-c3csc(-c4sc(Nc5cc(OC)c(OC)c(OC)c5)nc4N)n3)c2)cc(OC)c1OC
% inhibition @ 150 nM [2]: 0%

CNC(=O)Nc1nc(N)c(-c2nc(-c3cccc(NC(=O)[C@@H](O)C(C)C)c3)cs2)s1
inhibition at 0.001 µM [5]: 16%
inhibition at 0.01 µM [6]: 4%

COc1cccc(/C=C/C(=O)Nc2ccc(C)c(-c3noc(-c4sc(Nc5cc(OC)c(OC)c(OC)c5)nc4N)n3)c2)c1
inhibition at 0.001 µM [3]: -5%
inhibition at 0.01 µM [4]: 40%

COc1cc(Nc2nc(N)c(-c3nc(-c4cccc(NC(=O)c5ccc(C(C)(C)C)cc5)c4)cs3)s2)cc(OC)c1OC
inhibition at 0.15 µM [2]: 26%

CNC(=O)Nc1nc(N)c(-c2nc(-c3cccc(NC(=O)/C=C/C(=O)NCC4CC4)c3)cs2)s1
inhibition at 0.001 µM [5]: 10%
inhibition at 0.01 µM [6]: 1%

CNC(=O)Nc1nc(N)c(-c2nc(-c3cccc(NC(=O)C4CC5C=CCC(C5)C4)c3)cs2)s1 (stereo not drawn)
inhibition at 0.001 µM [5]: 1%
inhibition at 0.01 µM [6]: 55%

CNC(=O)Nc1nc(N)c(-c2nc(-c3cccc(NC(=O)c4cc(C)n(O)n4)c3)cs2)s1
inhibition at 0.001 µM [5]: -2%
inhibition at 0.01 µM [6]: 13%

COc1cccc(C(=O)Nc2cccc(-c3csc(-c4sc(NC(=O)NCCCN(C)c5ccccc5)nc4N)n3)c2)c1
inhibition at 0.01 µM (crude combinatorial urea library, read-out: Inhibition of HUVEC Proliferation % inhibition @ 10 nM): 17%
inhibition at 0.05 µM (crude combinatorial urea library, read-out: Inhibition of HUVEC Proliferation % inhibition @ 50 nM): 98%

CCN(CC)CCCC(C)NC(=O)Nc1nc(N)c(-c2nc(-c3cc(NC(=O)c4cccc(OC)c4)c(F)cc3F)cs2)s1 (stereo not drawn)
inhibition at 0.05 µM (Inhibition of HUVEC Proliferation, crude combinatorial urea library, read-out: % inhibition @ 50 nM): 84%

COc1cc(Nc2nc(N)c(-c3nc(-c4cccc(NC(=O)c5ccc(Br)o5)c4)cs3)s2)cc(OC)c1OC [drawing 929]
inhibition at 0.15 µM [2]: 34%

COc1cccc(C(=O)Nc2cc(-c3noc(-c4sc(NC(=O)NCCCCN(C)C)nc4N)n3)c(F)cc2F)c1
inhibition at 0.05 µM [1]: -3%

C=CCC(=O)Nc1cccc(-c2csc(-c3sc(NC(=O)NC)nc3N)n2)c1
inhibition at 0.001 µM [5]: 8%
inhibition at 0.01 µM [6]: -13%

COc1cc(Nc2nc(N)c(-c3nc(-c4cccc(NC(=O)c5cccc(C(=O)c6ccccc6)c5)c4)cs3)s2)cc(OC)c1OC
inhibition at 0.15 µM [2]: -18%
